Source: patent publication US5360803A, “Composition and method for treating cancer” (Dan Farber Cancer Institute, priority 1992, dated 1994)
Read-outs that look alike come from different tables or passages of the source.

Tests used:
CV-1 cells = test: selective killing assay, colony number reduced to 50% of control, normal monkey kidney epithelial cell line CV-1; assay type: cell-based; details: Primates, 24 hours treatment
Text: (§1) The control received culture media only.

normal nude mice = test: toxicity to normal nude mice
CX-1 cells = test: selective killing assay, colony number reduced to 50% of control, human colon carcinoma cell line CX-1; assay type: cell-based; details: for Selectivity (ratio of IC50 for CV-1 and IC50 for CX-1): CV-1/CX-1; for IC50 / CX-1 (IC50): human colon carcinoma, 24 hours treatment, colony count after 7 to 10 days;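 on all read-outs here: colonies stained with crystal violet and counted, control cells given medium alone, exposure at 37 °C, normal monkey kidney epithelial CV-1 cells as the non-cancer comparator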
Description: (§2) Human colon carcinoma cell line CX-1 or normal monkey kidney epithelial cell line CV-1 was chosen as representatives of cancer cells and normal cells, respectively. […] CX-1 cells (2,000 cells/well) and CV-1 cells (1,000 cells/well) were plated in 24-well plastic culture plates. […] The control received culture media only. Cells were treated with compounds of General Formulas (I) to (V) at 37° C. for 24 hours. After rinsing with fresh culture medium three times, the cells were further incubated at 37° C. for 7 to 10 days. Cell colonies were fixed and stained with 2% crystal violet in 70% ethanol for 10 minutes and rinsed in water. […] The selectivity is defined as the ratio of IC50 for CV-1 and IC50 for CX-1.

EJ cells = test: colony assay of Example 1 with human bladder carcinoma EJ cell line; assay type: cell-based; details: for Selectivity: CV-1/EJ; for IC50: EJ;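 on all read-outs here: colony formation assay with 24 h compound exposure at 37 °C, then 7–10 days drug-free regrowth, colonies stained with crystal violet, controls given medium alone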
Description: as §2

LOX cells = test: colony assay of Example 1 with human melanoma LOX cell line; assay type: cell-based; details: for Selectivity: CV-1/LOX; for LOX(IC50) / IC50: Table V, human melanoma, 24 hours treatment; for IC50: LOX;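 on all read-outs here: colony formation assay with 24 h exposure at 37 °C, then 7 to 10 days of regrowth, crystal violet staining of colonies, control wells given medium alone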
MCF-7 cells = test: colony assay of Example 1 with human breast carcinoma MCF-7 cell line; assay type: cell-based; details: for Selectivity: CV-1/MCF-7
Text: as §1

CRL 1420 cells = test: colony assay of Example 1 with human pancreatic carcinoma CRL 1420 cell line; assay type: cell-based; details: for Selectivity: CV-1/CRL-1420;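 on all read-outs here: colony formation assay, cells exposed for 24 h then regrown 7 to 10 days without compound, colonies stained with crystal violet, control given medium alone, normal reference CV-1 monkey kidney epithelial cells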
Description: as §2

human melanoma LOX = test: survival of nude mice implanted with human melanoma LOX; assay type: in vivo, male athymic Swiss nu/nu mouse (human tumor); details: Mus musculus, ip, read-out: T/C
[1] = system: human colon carcinoma CX-1; test: anti-human colon carcinoma CX-1 activity using nude mice; assay type: in vivo, Swiss nu/nu mice (human tumor); details: Mus musculus, ip, 24 h, read-out: Tumor Inhibition
Text: Human colon carcinoma cell line CX-1 has been chosen by the National Cancer Institute as a mode for cancer drug screening (NCI Protocol 3C2H2). It was established in culture from the surgical explant of the primary colon adenocarcinoma of a person with no previous chemotherapy. The cultured CX-1 cells, upon subcutaneous injection, can grow readily in nude mice as a moderately- to well-differentiated human colon carcinoma. CEA is expressed as expected for differentiated colon carcinoma cells. Abundant keratin, consistent with epithelial origin, is present. Increased uptake and prolonged retention of delocalized lipophilic cations are observed.
Swiss nu/nu mice obtained from Taconic Farm were housed in a pathogen-free environment. Tumors subcutaneously passaged in nude mice were excised under sterile conditions and converted to a single cell suspension using a metal grid with a 0.4 mm mesh. Red blood cells were lysed by incubation with 0.17M ammonium chloride at 4° C. for 20 minutes. Cells were scored for viability with trypan blue. Viable CX-1 cells (2.5 million) made up in 0.1 ml of […]. The mice were randomly allocated into a control group (five mice) and a treatment group (five mice per group). The drug treatment was commenced the next day. Doses and schedules were developed empirically and were based mainly on information on LD50 and LD1O obtained from preliminary toxicity studies. The control group received an equivalent volume of hydroxypropyl-β-cyclodextrin-5% glucose solution.
The pharmaceutical compositions tested comprised solutions in 5% glucose subjected to sonication at concentrations of 1 mg/ml. Those compounds which were not completely dissolved by this procedure were dissolved hydroxypropyl-β-cyclodextrin using the following method. Hydroxypropyl-β-cyclodextrin (45 g) was mixed with 100 ml of sterilized, double distilled water and stirred for four hours. Each of the compounds to be tested (20 mg) was mixed with 10 ml of hydroxypropyl-β-cyclodextrin solution and sonicated for 60 minutes in the dark. This solution was then diluted in 5% glucose to yield a final compound concentration of 0.5 mg/ml, and further sonicated for 60 minutes in the dark to assure that the compound was completely dissolved.
When the growth of tumors in the control group reached the exponential phase and the size of the tumor was palpable (usually 20 to 30 days after tumor implantation), the experiments were terminated. Tumors in each mouse were excised and weighed using an analytical balance. Total tumor weight in each group from five mice was calculated. Per cent tumor inhibition between the treated group and the control group was then calculated for each group.

[2] = CV-1, Table III, normal monkey kidney epithelial cells, colony count after 7 to 10 days
[3] = Homo sapiens, 24 h, Table IV, human bladder carcinoma, 24 hours treatment
[4] = Homo sapiens, 24 h, Table VII, human pancreatic carcinoma, 24 hours treatment
[5] = Homo sapiens, MCF7, 24 h, Table VI, human breast carcinoma, 24 hours treatment
[6] = Table IV, human bladder carcinoma, 24 hours treatment
[7] = Table VII, human pancreatic carcinoma, 24 hours treatment
[8] = 5 mg/kg i.p. on day 1, 5, 8, 11

Row | IC50 (EJ cells; [3]) | IC50 (CRL 1420 cells; [4]) | SMILES | IC50 (CV-1 cells; [2]) | toxicity to normal nude mice (normal nude mice) | Selectivity (ratio of IC50 for CV-1 and IC50 for CX-1) (CX-1 cells) | IC50 (CX-1 cells; Homo sapiens, CX-1, Table III) | IC50 (CV-1 cells; CV-1, 24 h, Table IV) | IC50 (CV-1 cells; CV-1, 24 h, Table V) | IC50 (CV-1 cells; CV-1, 24 h, Table VI) | IC50 (CV-1 cells; CV-1, 24 h, Table VII) | Selectivity (EJ cells) | Selectivity (LOX cells) | Selectivity (MCF-7 cells) | Selectivity (CRL 1420 cells) | also measured
1 | – | – | CCN1/C(=C/C=C/c2sc3ccccc3[n+]2CC)Sc2ccccc21 [A, reference compound] | 0.6 µg/mL | highly toxic to normal nude mice | – | – | – | – | – | – | – | – | – | – | –
2 | – | – | CCN1C(=CC=Cc2sc3c4ccccc4ccc3[n+]2CC)Sc2c1ccc1ccccc21 [B, reference compound] | < 0.1 µg/mL | highly toxic to normal nude mice | < 2 | 0.05 µg/mL | – | – | – | – | – | – | – | – | –
3 | 0.2 µg/mL | 0.07 µg/mL | CCn1c(=CC2=[N+](CC)CCS2)sc(=C2Sc3ccccc3N2C)c1=O [Compound 16] | 20 µg/mL | – | 667 | – | 20 µg/mL | 20 µg/mL | 20 µg/mL | 20 µg/mL | 100 | 222 | 333 | 285 | CX-1 (IC50) (CX-1 cells; Table III): 0.03 µg/mL; LOX(IC50) (LOX cells): 0.09 µg/mL; MCF-7(IC50) (MCF-7 cells; Table VI, human breast carcinoma, 24 hours treatment): 0.06 µg/mL; response vs control in vivo at 5 mg/kg (human melanoma LOX; 24 h, 5 mg/kg i.p. on day 1, 4, 8, 11): 147%; inhibition in vivo at 5 mg/kg ([1]; 5 mg/kg i.p. on day 1, 5, 8, 12, 15, 19): 82.9%
4 | 0.1 µg/mL | 0.09 µg/mL | CCN1C(=c2sc(=Cc3oc4ccccc4[n+]3CC)n(CC)c2=O)Sc2ccccc21 [Compound 19] | 10 µg/mL | – | 500 | 0.02 µg/mL | 20 µg/mL | 20 µg/mL | 10 µg/mL | 10 µg/mL | 200 | > 200 | 167 | 111 | IC50 (LOX cells; Homo sapiens, 24 h): < 0.1 µg/mL; IC50 (MCF-7 cells; [5]): 0.06 µg/mL; inhibition in vivo at 5 mg/kg ([1]; 5 mg/kg i.p. on day 1, 9, 13): 60.4%
5 | – | – | CCn1c(=Cc2oc3ccccc3[n+]2C)sc(=C2Sc3ccccc3N2C)c1=O [Compound 26] | – | – | 500 | – | – | – | 20 µg/mL | – | 400 | 400 | 333 | 500 | CX-1 (IC50) (CX-1 cells; Table III): 0.04 µg/mL; EJ (IC50) (EJ cells; [6]): 0.05 µg/mL; LOX(IC50) (LOX cells): 0.05 µg/mL; IC50 (MCF-7 cells; [5]): 0.06 µg/mL; CRL-1420(IC50) (CRL 1420 cells; [7]): 0.04 µg/mL; inhibition in vivo at 5 mg/kg [1, 8]: 53.6%
6 | – | – | CCn1c(=Cc2[se]c3ccccc3[n+]2CC)sc(=C2Sc3ccccc3N2C)c1=O [Compound 27] | 20 µg/mL | – | 667 | – | – | – | – | – | 1000 | 1333 | 333 | 1333 | IC50 (CV-1 cells; CV-1, Table IV): 20 µg/mL; IC50 (CV-1 cells; CV-1, Table V): 20 µg/mL; IC50 (CX-1 cells; CX-1, Table III): 0.03 µg/mL; IC50 (EJ cells; [6]): 0.02 µg/mL; IC50 (LOX cells): 0.015 µg/mL; IC50 (MCF-7 cells; MCF7, Table VI, human breast carcinoma, 24 hours treatment): 0.06 µg/mL; IC50 (CRL 1420 cells; [7]): 0.015 µg/mL; inhibition in vivo at 2.5 mg/kg [1]: 40.9%
7 | 0.04 µg/mL | 0.05 µg/mL | CCn1c(=C2CCC[n+]3c2sc2ccccc23)sc(=C2Sc3ccccc3N2C)c1=O [Compound 39] | 20 µg/mL | – | 500 | 0.04 µg/mL | 20 µg/mL | 20 µg/mL | 20 µg/mL | 20 µg/mL | 500 | 666 | 222 | 400 | IC50 (LOX cells; Homo sapiens, 24 h): 0.03 µg/mL; IC50 (MCF-7 cells; [5]): 0.09 µg/mL; response vs control in vivo at 5 mg/kg (human melanoma LOX; 24 h, 5 mg/kg i.p. on day 1, 4, 11, 15, 18): 154%; inhibition in vivo at 5 mg/kg [1, 8]: 74.9%
8 | – | – | CCCN1C(=CC=CC=Cc2oc3ccccc3[n+]2CCC)Oc2ccccc21 [E, reference compound] | 6 µg/mL | less toxic to normal nude mice | 12 | 0.5 µg/mL | – | – | – | – | – | – | – | – | –
9 | – | – | CCN1C(=CC=CC=Cc2sc3ccccc3[n+]2CC)Oc2ccccc21 [F, reference compound] | 1.5 µg/mL | less toxic to normal nude mice | 50 | 0.03 µg/mL | – | – | – | – | – | – | – | – | –
10 | – | – | CCN1C(=CC(C)=Cc2sc3c4ccccc4ccc3[n+]2CC)Sc2c1ccc1ccccc21 [G, reference compound] | 0.1 µg/mL | highly toxic to normal nude mice | 5 | 0.02 µg/mL | – | – | – | – | – | – | – | – | –
11 | – | – | CCN1C(=CC=C(Cl)C=Cc2sc3ccc4ccccc4c3[n+]2CC)Sc2ccc3ccccc3c21 [H, reference compound] | 0.1 µg/mL | highly toxic to normal nude mice | 2.5 | 0.04 µg/mL | – | – | – | – | – | – | – | – | –

Row | SMILES | IC50 (EJ cells; [3]) | IC50 (CRL 1420 cells; [4]) | IC50 (CV-1 cells; [2]) | toxicity to normal nude mice (normal nude mice) | Selectivity (ratio of IC50 for CV-1 and IC50 for CX-1) (CX-1 cells) | IC50 (CX-1 cells; Homo sapiens, CX-1, Table III) | IC50 (CV-1 cells; CV-1, 24 h, Table IV) | IC50 (CV-1 cells; CV-1, 24 h, Table V) | IC50 (CV-1 cells; CV-1, 24 h, Table VI) | IC50 (CV-1 cells; CV-1, 24 h, Table VII) | Selectivity (EJ cells) | Selectivity (LOX cells) | Selectivity (MCF-7 cells) | Selectivity (CRL 1420 cells) | also measured
12 | CCn1c(=Cc2ccc3ccccc3[n+]2CC)sc(=C2Sc3ccccc3N2C)c1=O [Compound 21] | 0.022 µg/mL | 0.03 µg/mL | – | – | 800 | – | 8 µg/mL | 8 µg/mL | – | 8 µg/mL | 364 | 261 | – | 261 | CX-1 (IC50) (CX-1 cells; Table III): 0.01 µg/mL; IC50 (LOX cells; Homo sapiens, 24 h): 0.03 µg/mL; response vs control in vivo at 5 mg/kg (human melanoma LOX; 5 mg/kg i.p. on day 1, 2.5 mg/kg on day 5, 8): 133%; inhibition in vivo at 2.5 mg/kg ([1]; 2.5 mg/kg i.p. on day 1, 5, 8, 12): 50.2%
